# From US5665769A, “Pharmaceutical composition for preventing and treating retinal diseases” (Senju Pharmaceuticals Co., Ltd., priority 1993, dated 1997)
# Tested on: bovine retinal homogenate
# Experiment: Ferrous chloride-induced peroxidation of bovine retinal homogenate in vitro, TBA value (Experiment 1 (A))
# Assay type: biochemical
# Details: 10^-4 M
# Procedure: (A) In vitro experiment using a bovine retinal homogenate:
# Effects of 2-O-octadecylascorbic acid on the peroxidation induced by adding ferrous chloride to a bovine retinal homogenate were examined.
# (1) Retinae were removed from bovine eyeballs (1/2 eye). Physiological saline was added to the retinae to prepare bovine retinal homogenates.
# (2) Ferrous chloride (0.5 mM, dissolved in distilled water) was added to each of the retinal homogenates obtained in the above. Further, 2-O-octadecylascorbic acid and α-tocopherol were added to the resulting homogenates to final concentrations of the reaction mixtures of 10^-4 M, respectively. Further, distilled water was added to each of the homogenates to adjust a total volume to 1 ml. 2-O-octadecylascorbic acid and α-tocopherol were dissolved and diluted with ethanol. Thus, the final concentrations of ethanol in all of the reaction mixtures were adjusted to 1%. Then, the mixtures were subjected to reaction at 37° C. for 1 hour.
# (3) 0.35% thiobarbituric acid (hereinafter referred to as TBA) reagent (50% aqueous acetic acid solution)(1 ml) was added to the reaction mixtures or standard solutions of the retinal homogenates obtained in the above (2). The mixtures were subjected to reaction in boiling water at 100° C. for 1 hour. After water cooling, n-butanol (2 ml) was added, and the mixtures were shaken for 5 minutes and centrifuged at 3000 rpm for 10 minutes. Fluorescence intensities (excitation wave length: 515 nm, emission wave length: 553 nm) were determined for the n-butanol layer. Proteins were determined using Bio-Rad Protein Assay Kit (trade name).
structure (smiles),measurement,setting,value
"Cc1c(C)c2c(c(C)c1O)CCC(C)(CCCC(C)CCCC(C)CCCC(C)C)O2 (stereo not drawn) [α-Tocopherol, α-tocopherol, reference compound]",Retina: TBA value,"0.5 mM ferrous chloride, 37° C., 1 hour, mean ± S.D., n=3, p < 0.001 vs control",2.38 ± 0.12 nM malondialdehyde/mg protein
same,Inhibitory ratio,"ferrous chloride control = 0, blank = 100, 60 min",61.6%
